Target: T1, Androgen Receptor (AR) (Homo sapiens, UniProt P10275)
T1 construct: endogenous in cells; host or cells: VCaP
T1 sequence (P10275 1-920): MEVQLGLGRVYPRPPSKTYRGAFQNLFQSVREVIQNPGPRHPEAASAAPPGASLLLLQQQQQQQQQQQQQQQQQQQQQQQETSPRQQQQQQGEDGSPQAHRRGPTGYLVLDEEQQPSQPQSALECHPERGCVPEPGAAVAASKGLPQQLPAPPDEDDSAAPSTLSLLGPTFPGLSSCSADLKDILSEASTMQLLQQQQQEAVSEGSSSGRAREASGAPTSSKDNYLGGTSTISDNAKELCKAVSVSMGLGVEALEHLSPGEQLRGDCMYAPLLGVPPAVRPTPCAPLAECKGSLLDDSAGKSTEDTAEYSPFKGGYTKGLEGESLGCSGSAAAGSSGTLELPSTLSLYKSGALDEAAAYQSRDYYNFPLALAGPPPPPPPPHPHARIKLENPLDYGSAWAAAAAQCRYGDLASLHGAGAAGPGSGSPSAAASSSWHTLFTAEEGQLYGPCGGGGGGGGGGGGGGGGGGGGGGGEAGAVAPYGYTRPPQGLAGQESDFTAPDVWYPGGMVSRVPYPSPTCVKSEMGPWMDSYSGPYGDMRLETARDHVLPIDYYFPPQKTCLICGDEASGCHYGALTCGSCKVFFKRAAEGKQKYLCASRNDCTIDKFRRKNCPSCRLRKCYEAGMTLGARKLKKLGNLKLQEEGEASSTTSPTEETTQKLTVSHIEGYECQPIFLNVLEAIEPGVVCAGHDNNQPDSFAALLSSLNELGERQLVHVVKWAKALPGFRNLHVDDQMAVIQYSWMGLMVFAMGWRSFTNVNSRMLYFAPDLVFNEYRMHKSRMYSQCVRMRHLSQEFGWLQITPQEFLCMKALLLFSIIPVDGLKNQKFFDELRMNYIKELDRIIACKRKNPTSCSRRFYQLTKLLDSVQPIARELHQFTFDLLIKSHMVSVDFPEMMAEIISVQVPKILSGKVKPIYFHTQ
Assay: AR immunofluorescence staining, high content imager, VCaP cells
Assay type: cell-based
Conditions: for DC50: AR degradation by immunofluorescence; for Dmax: maximal AR degradation
Protocol: AR Immunofluorescence Staining of Cells for the High Content Imager was performed as follows: Following treatment of the cells with compound (using the central 60 wells of a 96-well plate), media was removed by aspiration, followed by addition of 50 μL per well of 4% paraformaldehyde (PFA) in PBS supplemented with 2 mM MgCl2 and 2 mM CaCl2. Fixed cells were incubated at RT for 15 minutes. For particularly low adherence cell lines (e.g., VCaP), a 2× solution of 8% PFA was added directly to wells instead. Cells were washed once with 200 μL PBS/well. To permeabilize cells 50 μL/well of 0.1% Triton X-100 in PBS was added and incubated for 5 minutes. Cells were washed once with 200 μL PBSS/well. 100 μL/well of Licor Odyssey Blocking Buffer was added for 1 hour at 20° C. Wells were aspirated and AR antibody (1:1000 in Licor Odyssey blocking buffer; 50 μL/well; CST 5153s) was added. Plates were incubated overnight at 4° C. Plates were washed 3 times with 200 EL PBS/well. The appropriate secondary antibody was added (50 μL/well; diluted in Licor Odyssey blocking buffer) and incubated for 1 hour at RT in the dark as prepared below using Anti-rabbit FITC (1:5000; […]) and Phalloidin-Alexafluor 648 (1:500; […]). Cells were washed once with 200 μL PBS/well. 50 μL DAPI or Hoechst 33342 diluted 1:1000 in Licor Odyssey blocking buffer was added to the wells. Cells were washed 3 times with 200 μL PBS/well. The plates were covered with a clear plastic sealer and refrigerated in the dark until ready to analyze. The cells were analyzed using a Molecular Devices IXM high content imager and analyzed using Molecular Devices metaXpress software suite.

| Structure (SMILES) | DC50 | Dmax |
| --- | --- | --- |
| COc1cc(O[C@H]2C[C@H](N3CCOC4(CCN(c5ccc(C(=O)N[C@H]6C(C)(C)[C@H](Oc7cc(C)c(C#N)c(C)c7)C6(C)C)cc5)CC4)C3)C2)cc(C(=O)NC2CCC(=O)NC2=O)c1 (stereo partly shown) [Compound 76, N-(2,6-dioxopiperidin-3-yl)-3-methoxy-5-[(1r,3r)-3-[9-(4-{[(1r,3r)-3-(4-cyano-3,5-dimethylphenoxy)-2,2,4,4-tetramethylcyclobutyl]carbamoyl}phenyl)-1-oxa-4,9-diazaspiro[5.5]undecan-4-yl]cyclobutoxy]benzamide] | 1 to 10 nM | < 50% |
| COc1cc(O[C@H]2C(C)(C)[C@H](NC(=O)c3ccc(N4CCC(CN5CCN(c6ccc(C(=O)N[C@H]7CCC(=O)NC7=O)c(F)c6)CC5)CC4)cc3)C2(C)C)ccc1C#N [Compound 21, 4-(4-((1-(4-(((1R,3R)-3-(4-cyano-3-methoxyphenoxy)-2,2,4,4-tetramethylcyclobutyl)carbamoyl)phenyl)piperidin-4-yl)methyl)piperazin-1-yl)-N—((S)-2,6-dioxopiperidin-3-yl)-2-fluorobenzamide] | < 1 nM | ≥ 70% |
| COc1cc(O[C@H]2C(C)(C)[C@H](NC(=O)c3ccc(N4CCO[C@@H](CN(C(C)C)[C@H]5C[C@H](Oc6ccc(C(=O)N[C@H]7CCC(=O)NC7=O)c(F)c6)C5)C4)cc3)C2(C)C)ccc1C#N [Compound 44, 4-[(2S)-2-([isopropyl[(1R,3R)-3-(4-[[(3S)-2,6-dioxopiperidin-3-yl]carbamoyl]-3-fluorophenoxy)cyclobutyl]amino]methyl)morpholin-4-yl]-N-[(1R,3R)-3-(4-cyano-3-methoxyphenoxy)-2,2,4,4-tetramethylcyclobutyl]benzamide] | < 1 nM | ≥ 70% |
| COCCN(C[C@H]1CN(c2ccc(C(=O)N[C@H]3C(C)(C)[C@H](Oc4cc(C)c(C#N)c(C)c4)C3(C)C)cc2)CCO1)[C@H]1C[C@H](Oc2ccc(C(=O)N[C@H]3CCC(=O)NC3=O)c(F)c2)C1 [Compound 67, 4-[(2S)-2-{[(2-methoxyethyl)[(1r,3r)-3-(4-{[(3S)-2,6-dioxopiperidin-3-yl]carbamoyl}-3-fluorophenoxy)cyclobutyl]amino]methyl}morpholin-4-yl]-N-[(1r,3r)-3-(4-cyano-3,5-dimethylphenoxy)-2,2,4,4-tetramethylcyclobutyl]benzamide] | 1 to 10 nM | ≥ 70% |
| COc1cc(N2CCN(C[C@H]3CN(c4ccc(C(=O)N[C@H]5C(C)(C)[C@H](Oc6cc(C)c(C#N)c(C)c6)C5(C)C)cc4)CCO3)CC2)ccc1C(=O)NC1CCC(=O)NC1=O (stereo partly drawn) [Compound 59, N-(2,6-dioxopiperidin-3-yl)-2-methoxy-4-(4-{[(2S)-4-(4-{[(1r,3r)-3-(4-cyano-3,5-dimethylphenoxy)-2,2,4,4-tetramethylcyclobutyl]carbamoyl}phenyl)morpholin-2-yl]methyl}piperazin-1-yl)benzamide] | < 1 nM | ≥ 70% |
| COc1cc(O[C@H]2C(C)(C)[C@H](NC(=O)c3ccc(N4CCC5(CC4)CN([C@H]4C[C@H](Oc6ccc(C(=O)N[C@H]7CCC(=O)NC7=O)c(OC)c6)C4)CCO5)cc3)C2(C)C)ccc1C#N [Compound 34, 4-[3-[9-[4-[[3-(4-cyano-3-methoxy-phenoxy)-2,2,4,4-tetramethyl-cyclobutyl]carbamoyl]phenyl]-1-oxa-4,9-diazaspiro[5.5]undecan-4-yl]cyclobutoxy]-N-[(3S)-2,6-dioxo-3-piperidyl]-2-methoxy-benzamide] | < 1 nM | ≥ 70% |
| COc1cc(O[C@H]2C(C)(C)[C@H](NC(=O)c3ccc(N4CCC(CN5CCN(c6cnc(C(=O)N[C@H]7CCC(=O)NC7=O)nc6)CC5)CC4)cc3)C2(C)C)ccc1C#N [Compound 39, 5-(4-((1-(4-(((1r,3r)-3-(4-cyano-3-methoxyphenoxy)-2,2,4,4-tetramethylcyclobutyl)carbamoyl)phenyl)piperidin-4-yl)methyl)piperazin-1-yl)-N—((S)-2,6-dioxopiperidin-3-yl)pyrimidine-2-carboxamide] | < 1 nM | ≥ 70% |
| COc1cc(O[C@H]2C[C@H](N3CCOC4(CCN(c5ccc(C(=O)N[C@H]6C(C)(C)[C@H](Oc7cc(C)c(C#N)c(C)c7)C6(C)C)cc5)CC4)C3)C2)ccc1C(=O)N[C@H]1CCC(=O)NC1=O [Compound 35, 4-[3-[9-[4-[[3-(4-cyano-3,5-dimethyl-phenoxy)-2,2,4,4-tetramethyl-cyclobutyl]carbamoyl]phenyl]-1-oxa-4,9-diazaspiro[5.5]undecan-4-yl]cyclobutoxy]-N-[(3S)-2,6-dioxo-3-piperidyl]-2-methoxy-benzamide] | < 1 nM | ≥ 70% |
| Cc1cc(O[C@H]2C(C)(C)[C@H](NC(=O)c3ccc(N4CC(CN5CC(c6ccc(C(=O)N[C@H]7CCC(=O)NC7=O)c(F)c6)C5)C4)cc3)C2(C)C)cc(C)c1C#N [Compound 71, N-[(3S)-2,6-dioxopiperidin-3-yl]-2-fluoro-4-(1-{[1-(4-{[(1r,3r)-3-(4-cyano-3,5-dimethylphenoxy)-2,2,4,4-tetramethylcyclobutyl]carbamoyl}phenyl)azetidin-3-yl]methyl}azetidin-3-yl)benzamide] | < 1 nM | 50 to 70% |

More lines, now with the values ahead:

| DC50 | Dmax | Structure (SMILES) |
| --- | --- | --- |
| < 1 nM | ≥ 70% | CC1(C)[C@H](NC(=O)c2ccc(C#CC3CCN(C4CCN(c5ccc(C(=O)N[C@H]6CCC(=O)NC6=O)c(F)c5)CC4)CC3)cc2)C(C)(C)[C@H]1Oc1ccc(C#N)c(Cl)c1 [Compound 36, N-[(3S)-2,6-dioxopiperidin-3-yl]-2-fluoro-4-{4-[2-(4-{[(1r,3r)-3-(3-chloro-4-cyanophenoxy)-2,2,4,4-tetramethylcyclobutyl]carbamoyl}phenyl)ethynyl]-[1,4′-bipiperidin]-1′-yl}benzamide] |
| < 1 nM | 50 to 70% | CC1(C)[C@H](NC(=O)c2ccc(N3CCC(CN4CCN(c5ccc(C(=O)NC6CCC(=O)NC6=O)c(F)c5)CC4)CC3)nn2)C(C)(C)[C@H]1Oc1ccc(C#N)c(Cl)c1 (stereo partly drawn) [Compound 17, N-((1R,3R)-3-(3-chloro-4-cyanophenoxy)-2,2,4,4-tetramethylcyclobutyl)-6-(4-((4-(4-((2,6-dioxopiperidin-3-yl)carbamoyl)-3-fluorophenyl)piperazin-1-yl)methyl)piperidin-1-yl)pyridazine-3-carboxamide] |
| < 1 nM | ≥ 70% | COCCN(C[C@H]1CN(c2ccc(C(=O)N[C@H]3C(C)(C)[C@@H](Oc4cc(C)c(C#N)c(C)c4)C3(C)C)cc2)CCO1)[C@H]1C[C@H](Oc2ccc(C(=O)N[C@@H]3CCC(=O)NC3=O)c(F)c2)C1 [Compound 51, 4-[(2S)-2-{[(2-methoxyethyl)[(1r,3r)-3-(4-{[(3R)-2,6-dioxopiperidin-3-yl]carbamoyl}-3-fluorophenoxy)cyclobutyl]amino]methyl}morpholin-4-yl]-N-[(1r,3r)-3-(4-cyano-3,5-dimethylphenoxy)-2,2,4,4-tetramethylcyclobutyl]benzamide] |
| < 1 nM | ≥ 70% | CC(C)N(CC1CCN(c2cnc(C(=O)N[C@H]3CC[C@H](Oc4ccc(C#N)c(Cl)c4)CC3)cn2)CC1)[C@H]1C[C@H](Oc2ccc(C(=O)NC3CCC(=O)NC3=O)cc2)C1 (stereo partly shown) [Compound 27, N-[4-(3-chloro-4-cyano-phenoxy)cyclohexyl]-5-[4-[[[3-[4-[(2,6-dioxo-3-piperidyl)carbamoyl]phenoxy]cyclobutyl]-isopropyl-amino]methyl]-1-piperidyl]pyrazine-2-carboxamide] |
| < 1 nM | ≥ 70% | Cc1cc(O[C@H]2C(C)(C)[C@H](NC(=O)c3ccc(N4CCO[C@H](CN5CCN(c6ccc(C(=O)N[C@@H]7CCC(=O)NC7=O)c(F)c6)CC5)C4)cc3)C2(C)C)cc(C)c1C#N (single isomer, unassigned) [Compound 49] |
